According to ChEMBL document CHEMBL4052640 (Eur J Med Chem, 2017):
pEC50: −log10 of the molar value.

Key:
[1] = system: Influenza A virus; format: functional, cell-based; settings: A/Ned/378/05(H1N1), MDCK
[2] = system: Influenza B virus; assay: microbe, parasite or virus in culture; settings: B/Ned/537/05, MDCK
[3] = system: Respiratory syncytial virus; format: functional, cell-based; settings: human respiratory syncytial virus, HeLa
[4] = system: Coxsackievirus B4; format: functional, cell-based; settings: Enterovirus B, HeLa
[5] = system: MDCK; assay: Cytotoxicity against dog MDCK cells assessed as reduction in cell viability measured after 5 to 6 days by MTS assay; format: cell-based, Canis lupus familiaris
[6] = system: Vesicular stomatitis virus; assay: microbe, parasite or virus in culture; settings: HeLa
[7] = system: Coxsackievirus B4; format: functional; settings: Enterovirus B, Vero
[8] = system: Punta Toro virus; format: functional; settings: Vero
[9] = cells; settings: Influenza A virus, MDCK
[10] = system: Mammalian orthoreovirus 1; format: functional; settings: Mammalian orthoreovirus 1, Vero
[11] = system: Yellow fever virus; assay: microbe, parasite or virus in culture; settings: Vero
[12] = cells; settings: MDCK
[13] = system: Sindbis virus; format: functional; settings: Vero
[14] = system: Influenza A virus; format: functional, cell-based; settings: A/Ned/378/05(H1N1), MDCK; remark: listed apart in the source
[15] = system: Human respirovirus 3; assay: microbe, parasite or virus in culture; settings: Human respirovirus 3, Vero
[16] = cells; settings: Influenza A virus, MDCK; remark: listed apart in the source
[17] = system: Respiratory syncytial virus; assay: microbe, parasite or virus in culture; settings: human respiratory syncytial virus, HeLa
[18] = Cytotoxicity against human HeLa cells assessed as alterations in cell morphology by microscopic analysis; format: cell-based

SMILES	pEC50 [1]	pEC50 [2]	pEC50 [3]	pEC50 [4]	CC50 [5] [µM]	pEC50 [6]	pEC50 [7]	pEC50 [8]	pEC50 [9]	pEC50 [10]	pEC50 [11]	pEC50 [12]	pEC50 [13]	pEC50 [14]	pEC50 [15]	pEC50 [16]	pEC50 [17]	MCC [18] [µM]
CC1(C)N=C(N)N=C(N)N1c1ccccc1Cl	< 4.00	4.25	4.32	< 4.00	> 100	< 4.00	< 4.00	< 4.00	4.47	< 4.00	< 4.00	4.72	< 4.00	< 4.00	< 4.00	< 4.08		
CC1(C)N=C(N)N=C(N)N1c1ccc(Cl)cc1Cl	< 4.00	< 4.00	< 4.00	< 4.00	> 100	< 4.00	< 4.00	< 4.00	≤ 4.08	< 4.00	< 4.00	< 4.00	< 4.00	< 4.00	< 4.00	< 4.08		
CC(C)C1(C)N=C(N)N=C(N)N1c1ccc(Cl)cc1 (stereo not drawn)	4.17	5.55	6.10	< 4.00	> 100	< 4.00	< 4.00	< 4.00	4.48	< 4.00	< 4.00	6.00	< 4.00	4.35	< 4.00	4.62		
CC1(C)N=C(N)N=C(Nc2ccc(Cl)cc2)N1	< 4.00	< 4.00	< 4.00	< 4.00	> 100	< 4.00	< 4.00	< 4.00	< 4.08	< 4.00	< 4.00	< 4.00	< 4.00	< 4.00	< 4.00	< 4.08		
NC1=NC2(CCCC2)N(c2ccc(Cl)cc2)C(N)=N1	< 4.00	4.74	5.10	< 4.00	> 100	< 4.00	< 4.00	< 4.00	< 4.08	< 4.00	< 4.00	5.21	< 4.00	< 4.00	< 4.00	< 4.08		
NC1=NC2(CCCCC2)N(c2ccc(Cl)cc2)C(N)=N1	< 4.00	< 4.08	< 4.00	< 4.00	> 100	< 4.00	< 4.00	< 4.00	5.00	< 4.00	< 4.00	4.44	< 4.00	< 4.00	< 4.00	4.31		
CCC1(C)N=C(N)N=C(N)N1c1ccc(Cl)cc1 (stereo not drawn)	< 4.00	5.08	5.27	< 4.00	> 100	< 4.00	< 4.00	< 4.00	< 4.08	< 4.00	< 4.00	5.66	< 4.00	< 4.00	< 4.00	< 4.08		
CCOC(=O)c1ccc(N2C(N)=NC(N)=NC2(C)C)cc1	< 4.00	< 4.00	< 4.00	< 4.00	> 100	< 4.00	< 4.00	< 4.00	< 4.08	< 4.00	< 4.00	< 4.00	< 4.00	< 4.00	< 4.00	< 4.08		
CC1(C)N=C(N)N=C(N)N1c1cccc(C(F)(F)F)c1				< 4.00	6.1	< 4.00	< 4.00				< 4.00		< 4.00		< 4.00		7.52	20
CCCC1N=C(N)N=C(N)N1c1ccc(Cl)cc1 (stereo not drawn)	< 4.00	4.54	< 4.00	< 4.00	> 100	< 4.00	< 4.00	< 4.00	< 4.08	< 4.00	< 4.00	< 4.00	< 4.00	< 4.00	< 4.00	< 4.08		
CC1N=C(N)N=C(N)N1c1ccc(Cl)cc1 (stereo not drawn)	< 4.00	4.77	5.17	< 4.00	> 100	< 4.00	< 4.00	< 4.00	< 4.08	< 4.00	< 4.00	5.31	< 4.00	< 4.00	< 4.00	< 4.08		
NC1=NC(c2ccccc2)N(c2ccc(Cl)cc2)C(N)=N1 (stereo not drawn)	< 4.00	< 4.00	< 4.00	< 4.00	> 100	< 4.00	< 4.00	< 4.00	< 4.08	< 4.00	< 4.00	< 4.00	< 4.00	< 4.00	< 4.00	< 4.08		
N=C(N)NC(=N)Nc1ccc(Cl)cc1 [4-CHLOROPHENYLBIGUANIDE]	< 4.00	< 4.00	< 4.00	< 4.00	> 100	< 4.00	< 4.00	< 4.00	< 4.08	< 4.00	< 4.00	< 4.00	< 4.00	< 4.00	< 4.00	< 4.08		
CC1(C)N=C(N)N=C(N)N1c1ccc(Cl)c(Cl)c1 [CHLORCYCLOGUANIL]	6.46	7.10	8.12	< 4.00	6.7	< 4.00	< 4.00	< 4.00	5.85	5.42	< 4.00	7.52	< 4.00	6.26	< 4.00	6.14		
[H]/N=C(\N/C(=N/[H])Nc1ccc(Cl)cc1)NC(C)C [PROGUANIL]	< 4.00	< 4.00	< 4.00	< 4.00	> 100	< 4.00	< 4.00	< 4.00	< 4.08	< 4.00	< 4.00	< 4.00	< 4.00	< 4.00	< 4.00	< 4.08		
